These results are taken from patent US5434295A (priority 1994, dated 1995).

The test system of series [1] is cannabimimetic activity. Conditions: cited from earlier work.
The test system of series [2] is Rat brain NMDA receptors. Briefly: Blockade of NMDA response in Xenopus oocytes injected with rat brain RNA. Format: biochemical. The source says: Blockade of NMDA-induced voltage changes in Xenopus oocytes: Frog oocytes can be injected with genetic material from various species and organs, resulting in the expression of the various molecules encoded by this material in the oocyte. Injection of rat brain RNA provides active NMDA receptors on the ooctye surface. Application of NMDA results in changes in the electrical activity recorded from the oocytes. Various NMDA antagonists block the NMDA-induced changes in electrical activity and their potency and dose dependence in this system indicate their potency and mode of action as NMDA antagonists.
The oocyte is the most widely used system for studying the molecular, biophysical and pharmacological properties of expressed voltage- or transmitter-operated ion channels. This giant cell offers several advantages for this type of studies. It can be readily used for two-electrode voltage clamp studies, translates injected mRNA from different sources and functionally expresses the translated proteins, and it is also readily amenable for intracellular micron injections. Importantly, the recordings of neurotransmitter- or voltage-induced currents in a single oocyte are extremely stable and can performed repeatedly for 2-3 hours; this allows the performance of a full dose-response relation in single oocytes.
Rat brain NMDA receptors were expressed in Xenopus oocytes injected with total rat brain RNA. Dascal and Lotan. The conditions for injection culture and electrical recording from oocytes were as described by Dascal and Lotan (in: Methods in Molecular Biology, Longstaff and Revest, eds. Vol. 13, Chapter 13, Humana Press, N.J., 1992).
Briefly, female Xenopus were anesthetized by immersion in water containing 0.15% tricaine methanesulfonate and a small incision was made in the lower abdomen. Ovary fragments were removed into ND-96.
The oocytes were defolliculated by the collagenase treatment in order to remove the follicle cell layer. Defolliculated oocytes were injected with total rat brain RNA and incubated for 2-4 days at 22° C. in sterile NDE-96 solution. ND-96 solution contains (in mM): NaCl - 96, KCl - 2, CaCl2 - 1.8, Hepes - 5 (pH=7.4-7.6). NDE-96 contains in addition, 2.5 mM sodium pyruvate, 100 unit/ml penicillin, 100 μg/ml streptomycin. A single oocyte was placed in a 1 ml bath constantly superfused with ND-96 solution at room temperature. The cell was impaled with two microelectrodes and held at membrane potential of -60 mV using voltage clamp circuit.
RNA was extracted from the brain of 14-day old rat brain. Each oocyte was injected with 50 nl total RNA (4-8 mg/ml in water, stored at -80° C. in […] aliquots).
NMDA receptors were activated by application of NMDA with glycine in Mg-free ND-96 solution. It was shown previously and also observed in this study that the entry of calcium ions through the NMDA receptor-channel evokes a Ca-dependent Cl^- current which appeared as an early inward current peak preceding and overlapping the actual NMDA response and hindering a quantitative pharmacological study of NMDA antagonists. Experimental conditions were therefore worked out aimed at eliminating the Cl^- current. The best protocol employed the use of Ca-free, Ba-containing solution, avoiding repetitive application of antagonists, as well as other conditions including optimal perfusion rate and optimal intervals between repetitive NMDA applications.
Several NMDA receptor blockers were tested. These compounds have […] and have to be dissolved in 100% dimethyl sulfoxide (DMSO) and diluted for use in ND-96 that contained 1% DMSO. Therefore, the effect of 1% DMSO on the response to 10^-4 M NMDA and 5×10^-6 M glycine was examined. DMSO had no effect on NMDA response in three different cells.
Eight putative NMDA antagonists of the HU group, including 270, 271 and 259 were tested for anti-NMDA activity at a glutamate receptor. […]

For series [3], the system named is GABA receptors. As to the kind of experiment: Effect on GABA responses in oocytes. Format: biochemical, rat.
Series [4] deals with intraocular pressure (IOP). Briefly: Ocular hypotensive activity (intraocular pressure) in albino rabbits. Format: in vivo, albino rabbit. Conditions: for Max ΔIOP: ** drug vs. vehicle P < 0.01. As for the experimental part:
Bicyclic compounds of the present invention were also tested for IOP lowering effects.
Sci., 82, 1069-1079 (1993).
The phospholipids and HU-259 were dissolved in the stabilized oily phase. The other excipients were dissolved in the aqueous phase. Both phases were heated separately to 70° C. and dispersed by a magnetic stirrer. Emulsification was completed using a "high speed mixer" for 5 min at 85° C. The resulting emulsion was cooled rapidly below 20° C. and homogenized using a two-stage homogenizing valve assembly (Gaulin Homogenizer, APV Gaulin, Hilversum, The Netherlands) for 5 min. All the manufacturing procedures were carried out under aseptic conditions and a nitrogen atmosphere. The pH was adjusted to 7.4 using a sodium hydroxide solution (10%). The final fine emulsion was filtered to achieve sterility and stored in ampoules. A typical formulation (%, w/w) consisted of the following: HU-259, 0.2%; oily phase, 20.0%; purified fractionated egg phospholipids, 1.2%; nonionic emulsifier, 2%; glycerin, 2.25%; α-tocopherol, 0.02%; methyl and butyl p-hydroxy- benzoic ester, 0.3 and 0.075%, respectively; and water for injection, to 100.0 g. The control emulsion vehicle was prepared using identical experimental conditions but without drug.
IOP was measured by using a pneumatonometer (Digilab T30). Pressure readings were calibrated for verification every 6 h. One drop (50 μl) of local anesthetic (Benoxinate HCl, 0.4% Fischer [Isr] diluted 1:3 with sterile saline) was instilled into each eye prior to IOP measurements.

In series [5] the test system is CA1 hippocampal region in gerbils. Conditions: injected after the ischemic insult; Bar-Joseph et al. 1993; cited from earlier work.
For series [6], the system named is voltage-dependent P-type calcium channels. As to the kind of experiment: Inhibition of voltage-dependent P-type calcium channels expressed in oocytes. Format: biochemical, rat.
In series [7] the test system is NMDA-induced tremor, seizures and lethality in mice. Conditions: Feigenbaum et al. 1989; cited from earlier work.
Series [8] concerns rat brain cortical membrane preparations. Conditions: cited from earlier work.
Series [9] deals with MK-801 sites located at the NMDA receptor ion channel. Briefly: Inhibition of [3H]MK-801 binding to rat forebrain membranes. The source says: Binding to the NMDA receptor linked channel: Non competitive antagonists of NMDA, the primary example of which is the compound MK-801, bind to a site within the NMDA receptor channel thus preventing the activation of the receptor-channel complex and the consequent neurotoxicity. The ability of various compounds to compete with the binding of tritium labeled MK-801 to brain membranes is considered a measure of their potency as NMDA non-competitive antagonists.
The association of pinene derivatives with acetylcholine-muscarinic receptor and with MK-801 sites located at the NMDA receptor ion channel.
Inhibition of ^3 [H]MK-801 binding to rat forebrain membranes by the test HU-211 compounds was carried out as described for HU-211 in Eshhar et al., NeuroReport 5, No. 3, 1993) (Methods section). The test compounds were solubilized in a mixture of ethanol:Emulfor:water (20:3:57).

Series [10] deals with cannabinoid receptors. Conditions: Devane et al. 1992; cited from earlier work.
Series [11] deals with NMDA receptor linked ion channel. Conditions: Nadler et al. 1993; cited from earlier work.
In series [12] the test system is closed head injury, a model of head trauma. Conditions: Shohami et al. 1993; cited from earlier work.
Series [13] has as its system AMPA/kainate receptors. Briefly: Effect on kainate responses in oocytes. The series is classed as biochemical, rat.
Series [14] deals with intraocular pressure (IOP). Conditions: in vivo; cited from earlier work.
Series [15] deals with acetylcholine-muscarinic receptor. The series is classed as binding, rat. Conditions: 100 μM analogue.
Series [16] has as its system NMDA toxicity in mice. As to the kind of experiment: Prevention of NMDA neurotoxicity in mice (neurological scores). The series is classed as in vivo, mice (Balb/C). Conditions: for maximum improvement of neurological scores: NMDA 60 mg/kg s.c., i.p. or i.v. pretreatment; for neurological scores/symptoms after NMDA toxicity: pretreated mice. The source says: Blockade of NMDA toxicity in mice: Subcutaneous injection of NMDA in mice results in a dose-dependent increase in the number, severity and duration of several neurological symptoms, culminating in death at the higher dose range. The symptoms include tail flicks, circling, tremor and convulsions. The ability of various compounds, when administered to mice prior to NMDA, to reduce the number and severity of these symptoms is a considered a measure of their potency in preventing NMDA behavioral toxicity in vivo.
Test drugs were administered intraperitoneally at the stipulated doses in a solution of MCT oil. Each point represents the mean scores of eight mice treated with the drug compared to the same number of control animals receiving the vehicle alone.
Test compounds were administered at a standard dose of 10 mg/kg either intraperitoneally (in MCT oil) or intravenously (in a submicronized emulsion).
(§1) Bicyclic compounds of the present invention were tested for their ability to block NMDA toxicity in mice. Balb/C mice received NMDA by subcutaneous injection at a dose of 60 mg/kg which was determined to be the LD20 dose of this substance. Thirty minutes prior to injection of the neurotoxin the animals received either (a) an intravenous injection of the test drug formulated in submicronized emulsion as described in Example 11); (b) an intraperitoneal injection of the test drug dissolved in MCT oil; (c) or the appropriate vehicle alone (control groups). The improvement rate afforded by the test drug was defined as the difference between scores of animals receiving the formulated drug and those receiving the vehicle alone. The doses tested for HU-254, HU-259 and HU-260 ranged from 5 to 30 mg/kg.
At least 6-8 mice were included per test group. The materials were tested in a masked study to preclude bias of the observer of clinical symptoms.
The behavioral scoring method (tabulated above) was used as the basic quantitative procedure for evaluating the level of NMDA or kainic acid neurotoxicity in mice. The neurological clinical status of each animal was calculated by totalling the scores of all signs that were evident throughout the study. Duration of symptoms was also taken into account.
If duration of a neurological system is up to 30 seconds, the score is s-1. Duration between 0.5-3.0 mins, the score is s. Duration longer than 3 mins, the score is s+1.

For series [17], the system named is Balb/C mice. As to the kind of experiment: Lethality of subcutaneous NMDA in mice. The series is classed as in vivo. Conditions: subcutaneous injection. As for the experimental part: as §1

pKi: −log10 of the molar value.

`CCCCCCC(C)(C)c1ccc([C@@H]2C[C@H](O)CC[C@H]2CCCO)c(O)c1` [CP-55940]: the cannabimimetic activity result in series [1] was “found to produce cannabimimetic effects”.

In the case of `CCCCCCC(C)(C)c1cc(O)c2c(c1)OC(C)(C)[C@@H]1CC=C(CO)C[C@@H]21` [HU-210, 1,1 dimethylheptyl (DMH) homolog of [3R,4R]-7-hydroxy Δ^6 THC, reference compound], the cannabimimetic activity entry in [1] is on record as “two orders of magnitude higher than the natural Δ^1 THC”. In addition, the “% inhibition of NMDA” value in [2] (10 μM) is listed as 0%. In series [2] (concentrations up to 10 μM), the “inhibitory effects on NMDA response” value was “did not have any inhibitory effects”.

For `CCCCCCC(C)(C)c1cc(O)c2c(c1)OC(C)(C)[C@H]1CC=C(CO)C[C@H]21` [HU-211, 7-hydroxy-Δ^6-tetrahydrocannabinol 1,1-dimethylheptyl, reference compound], the “effect on GABA responses” value in series [3] is reported as “no effect”. The “AUC (from instillation of treatment until return to baseline IOP)” value is recorded as -4.9 ± 7.0 mmHg × hrs in series [4] (contralateral eye) and -9.5 ± 6.0 mmHg × hrs in series [4] (treated eye). Besides, the “Max ΔIOP” value in series [4] (contralateral eye) was -2.0 ± 1.1 mmHg; in series [4] (treated eye, single dose 0.2% emulsion), -2.9 ± 0.7 mmHg. In addition, the “neuronal cell damage in CA1 hippocampal region” value in [5] is “prevent neuronal cell damage”. In addition, in [1], the cannabimimetic activity entry is “inactive as a cannabimimetic”. Besides, the “inhibition of activity of voltage-dependent P-type calcium channels” value in series [6] is “did not inhibit”. For the same compound, in series [7], the “block of NMDA-induced tremor, seizures and lethality” value is “block NMDA-induced tremor, seizures and lethality in mice”. Further, the “increase in binding of [3H]TCP induced by polyamines, glutamate or glycine” value in series [8] is on record as “blocked the increase in binding”. Besides, the “% inhibition of NMDA” value in series [2] (1 μM) came out at 32%; in series [2] (10 μM) it was 47%. Besides, in [2] (Lineweaver-Burke analysis), the “mode of NMDA antagonism” value is recorded as “non-competitive NMDA antagonists”. In addition, the “concentration at which inhibitory activity was first apparent” value in [2] (NMDA response) amounted to 10 nM. Further, in [9] ([3H]MK801 binding, rat forebrain membranes, representative experiment in triplicate (HU259), read-out: inhibition constant (K1)), the pKi was 4.95. In addition, in series [10], the “affinity to the cannabinoid receptors” value is “very low affinity”. In addition, the “NMDA induced uptake of 45Ca++ ions” value in series [11] was “block the NMDA induced uptake”. In addition, the “extent of edema formation and overall neurological damage” value in series [12] is given as “significantly reduced”. In series [13], the “effect on kainate responses” value was “no effect”. In addition, the “lowering of intraocular pressure” value in series [14] is listed as “lowering of intraocular pressure (IOP)”.

Regarding `CCCCCCC(C)(C)c1cc(OC(C)=O)c([C@H]2C=C(COC(C)=O)[C@H]3C[C@@H]2C3(C)C)c(OC(C)=O)c1` [HU-254], in series [15], the “% inhibition of tritiated ligand binding to membranes, 3[H]QNB” value is on record as 96.1%. In series [16], the “maximum improvement of neurological scores” value is recorded as 30-40% and the “neurological scores/symptoms after NMDA toxicity” value is “improvement in neurological scores”. Besides, the “maximum improvement rate on the neurological scores” value in series [16] (i.p. dose of 20 mg/kg) was 25%. The “effect of route of administration on performance” value in series [16] (i.v. vs i.p.) was “significantly enhanced by i.v. administration”. The “% inhibition of tritiated ligand binding to membranes, 3[H]-MK-801” value in series [9] (100 μM analogue) amounted to 5.3%.

Regarding `CCCCCCC(C)(C)c1cc(OC(C)=O)c([C@H]2C=C(CO)[C@H]3C[C@@H]2C3(C)C)c(OC(C)=O)c1` [HU-260], in series [16], the “maximum improvement of neurological scores” value is reported as 30-40% and the “neurological scores/symptoms after NMDA toxicity” value is recorded as “improvement in neurological scores”.

`CN[C@H](CC(=O)O)C(=O)O` [NMDA, N-methyl-D-aspartate]: the LD20 dose in series [17] worked out at 60 mg/kg.

With `COc1ccc(C(=O)c2c(C)n(CCN3CCOCC3)c3ccccc23)cc1` [pravadoline], in [1], the cannabimimetic activity entry is recorded as “found to produce cannabimimetic effects”.
